# According to patent US20040259079A1, “Substantially complete ribozyme libraries” (priority 1998, published 2004):
# Where two headings read alike, the source gives them in different places.
# Legend:
# Format in all cases: cell-based
# [1] = system: 5′TK cells (HeLa with HCV IRES-tk reporter); test: Gancyclovir sensitivity of 5′TK reporter cells, surviving colonies; design: key to number of surviving cell colonies: TMTC = too many colonies to count
# Text: For gene identification, this reporter is stably transfected into HeLa cells (where HCV IRES activity has already been documented using hygromycin selection (FIG. 23). This “parental” cell population is called 5′TK.
# Expression of the tk gene in these cells via the IRES confers sensitivity to the toxic effects of gancyclovir. Introduction of a ribozyme that inhibits expression of a cellular factor involved in IRES translation would result in a loss of tk expression and this cell would become gancyclovir resistant (see FIG. 23). As a control, a similar reporter plasmid was constructed without the IRES (or with a non-functioning mutant IRES), to verify that tk expression is IRES-dependent. To facilitate selection of the correct ribozyme from the library, it was necessary to start with a concentration of gancyclovir that effectively kills all parental cells, thus assuring a low background of false positives. To this end, 7.5×10^5 5′TK cells were exposed to various concentrations of gancyclovir and the number of surviving cell colonies is shown below. Due to anticipated heterogeneity in the original parental population, individual cell clones of the parental were also isolated and gancyclovir sensitivity was assayed as shown below in Table 12.
# [2] = system: 2008 cell line (ovarian cell line sensitive to cisplatin); test: Cisplatin selection of vector or library transfected cells, surviving colonies
# Description: Approximately 2×10^7 of the 2008 cell line (ovarian cell line sensitive to cisplatin) and UMscc10b were transfected by 200 μg of pAAV6Clib described in Example 2(A) using lipofectamine. The transfection efficiencies were from 27% to 35% by eGFP expression.
# After transfection, about 5.4×10^6 to 7×10^6 of cells (1.5 to 1.9 of library equivalent ) containing library DNA were selected by multiple rounds of addition of cisplatin at increasing concentrations. […] Colonies derived from the library transfected cells growing out of high concentration of cisplatin were expanded.
# To confirm the library transfected cells after selection are indeed more resistant to cisplatin than either the vector transfected or parental 2008 cells, we compared the killing curve of the cisplatin of there three cell population. […] Ribozyme sequences were rescued from the library transfected cells which were selected at high concentration were rescued by PCR by the method described in Example D and identified by sequencing. After confirming the function of ribozymes rescued from the resistant cells, we will identify genes controlling cisplatin sensitivity again based on the sequence of the ribozyme binding arms and GUC by the methods described in the next example.
# HIV = HIV challenge of stable Molt4/8 cell lines, P24 production (SAVA); settings: for % inhibition of HIV replication: Table 19, U5 ribozyme from RNA polymerase III promoters, P24 at 7 days, vs ALNL-6 control
# Description: Promoter efficacy was measured by using them to express a ribozyme against the US region of HIV and measuring the resulting anti-HIV effect for each promoter. […] The HIV protease inhibitor, indinavir, was included in these experiments as a positive control at 10 and 100 nM concentrations.
# A549 and HeLa cells = test: Puromycin selection of transiently transfected cells; settings: cells receiving puromycin resistance genes (pPur); 600ng/ml puromycin
# Description: Drug selection is typically used to obtain cells which stably express the drug resistance gene; however, we have found conditions under which cells transfected with puromycin-expressing vectors can survive for several days in the presence of puromycin, even when not stably transfected or transduced. During the same time period, untransfected cells are rapidly killed by the drug. Plasmids encoding puromycin resistance genes (pPur) were transfected into A549 and HeLa cells, and 600ng/ml puromycin was added to the culture medium. As a control, cells were transfected with plasmids lacking puromycin resistance genes (AMFT). The number of cells was determined at 1-day intervals following transfection. Cells lacking the puromycin resistance gene were killed within 2 or 3 days after the addition of puromycin, whereas cells receiving puromycin resistance genes survived as long as 7-9 days (FIG. 27). Target validation could therefore be performed on these transiently transfected cells between 2-9 days following puromycin selection. Other drugs which rapidly kill cells can also be employed in this type of experiment.
# melanoma cell line G-361 = test: TRAIL killing of G-361 cells; settings: 200 ng/ml TRAIL; 2 days after adding; most efficient condition
# Description: Selection of ribozymes (from the Rz library) capable of blocking TRAIL-induced apoptosis was investigated in the melanoma cell line G-361 (ATCC #CRL-1424). To determine their initial sensitivity to TRAIL, G-361 cells were plated at a density of 1×10^4 cells/cm^2. Recombinant TRAIL (Alexis Biochemicals) was applied at concentrations between 10 and 200 ng/ml for anywhere from 16 hours to 2 days.
molecule,measurement,setting,value
"Nc1nc(O)c2ncn(COC(CO)CO)c2n1 [Gancyclovir, gancyclovir]",number of surviving cell colonies,"[1]; Clone 1, gancyclovir 20 μM",20
same,number of surviving cell colonies,"[1]; Clone 1, gancyclovir 40 μM",4
same,number of surviving cell colonies,"[1]; Clone 1, gancyclovir 80 μM",0
same,number of surviving cell colonies,"[1]; Clone 2, gancyclovir 20 μM",0
same,number of surviving cell colonies,"[1]; Clone 2, gancyclovir 40 μM",0
same,number of surviving cell colonies,"[1]; Clone 2, gancyclovir 80 μM",0
same,number of surviving cell colonies,"[1]; Clone 3, gancyclovir 20 μM",0
same,number of surviving cell colonies,"[1]; Clone 3, gancyclovir 40 μM",0
same,number of surviving cell colonies,"[1]; Clone 3, gancyclovir 80 μM",0
same,number of surviving cell colonies,"[1]; Clone 4, gancyclovir 20 μM",TMTC
same,number of surviving cell colonies,"[1]; Clone 4, gancyclovir 40 μM",TMTC
same,number of surviving cell colonies,"[1]; Clone 4, gancyclovir 80 μM",60
same,number of surviving cell colonies,"[1]; Clone 5, gancyclovir 20 μM",0
same,number of surviving cell colonies,"[1]; Clone 5, gancyclovir 40 μM",0
same,number of surviving cell colonies,"[1]; Clone 5, gancyclovir 80 μM",0
same,number of surviving cell colonies,"[1]; Parental 5′TK, gancyclovir 4 μM, 7.5×10^5 cells exposed",109
same,number of surviving cell colonies,"[1]; Parental 5′TK, gancyclovir 8 μM",38
same,number of surviving cell colonies,"[1]; Parental 5′TK, gancyclovir 12 μM",17
same,number of surviving cell colonies,"[1]; Parental 5′TK, gancyclovir 16 μM",15
same,number of surviving cell colonies,"[1]; Parental 5′TK, gancyclovir 20 μM",9
same,number of surviving cell colonies,"[1]; Parental 5′TK, gancyclovir 40 μM",7
same,number of surviving cell colonies,"[1]; Parental 5′TK, gancyclovir 60 μM",2
same,number of surviving cell colonies,"[1]; Parental 5′TK, gancyclovir 80 μM",2
same,number of surviving cell colonies,"[1]; Parental 5′TK, gancyclovir 100 μM",1
same,sensitivity to gancyclovir (in words),"[1]; individual clones #2, 3 and 5, as low as 20 μM",highly sensitive
N.N.[Cl][Pt][Cl] [cisplatin],% of surviving colonies,"[2]; Library transfected cells (pAAV6Clib), cisplatin 4 uM, after multiple rounds of selection",18.4%
same,% of surviving colonies,"[2]; Library transfected cells, cisplatin 5 uM",10.3%
same,% of surviving colonies,"[2]; Library transfected cells, cisplatin 6 uM",5.2%
same,% of surviving colonies,"[2]; Library transfected cells, cisplatin 7 uM",2.3%
same,% of surviving colonies,"[2]; Library transfected cells, cisplatin 8 uM",0%
same,% of surviving colonies,"[2]; vector transfected cells, cisplatin 4 uM, after multiple rounds of selection",2.14%
same,% of surviving colonies,"[2]; vector transfected cells, cisplatin 5 uM",0.97%
same,% of surviving colonies,"[2]; vector transfected cells, cisplatin 6 uM",0.79%
same,% of surviving colonies,"[2]; vector transfected cells, cisplatin 7 uM",0%
same,% of surviving colonies,"[2]; vector transfected cells, cisplatin 8 uM",0%
CC(C)(C)NC(=O)[C@@H]1CN(Cc2cccnc2)CCN1C[C@@H](O)C[C@@H](Cc1ccccc1)C(=O)N[C@H]1c2ccccc2C[C@H]1O [indinavir],inhibition at 0.01 µM,"HIV; Human immunodeficiency virus 1, MOLT-4, Table 19, positive control at 10 nM, MOI 0.02, read-out: % inhibition of HIV replication",94.7 ± 2.8%
same,inhibition at 0.01 µM,"HIV; Human immunodeficiency virus 1, MOLT-4, Table 19, positive control at 10 nM, MOI 0.04, read-out: % inhibition of HIV replication",85.7 ± 4%
same,inhibition at 0.01 µM,"HIV; Human immunodeficiency virus 1, MOLT-4, Table 19, positive control at 10 nM, MOI 0.08, read-out: % inhibition of HIV replication",61.6 ± 9.5%
same,inhibition at 0.1 µM,"HIV; Human immunodeficiency virus 1, MOLT-4, Table 19, positive control at 100 nM, MOI 0.02, read-out: % inhibition of HIV replication",97.8 ± 1.7%
same,inhibition at 0.1 µM,"HIV; Human immunodeficiency virus 1, MOLT-4, Table 19, positive control at 100 nM, MOI 0.04, read-out: % inhibition of HIV replication",95.9 ± 0.2%
same,inhibition at 0.1 µM,"HIV; Human immunodeficiency virus 1, MOLT-4, Table 19, positive control at 100 nM, MOI 0.08, read-out: % inhibition of HIV replication",89.5 ± 1.2%
same,inhibition at 0.01 µM,"HIV; Human immunodeficiency virus 1, MOLT-4, Table 20, positive control at 10 nM, MOI 0.02, read-out: % inhibition (anti-HIV effect)",81.3 ± 1.2%
same,inhibition at 0.01 µM,"HIV; Human immunodeficiency virus 1, MOLT-4, Table 20, positive control at 10 nM, MOI 0.04, read-out: % inhibition (anti-HIV effect)",70.9 ± 2.1%
same,inhibition at 0.01 µM,"HIV; Human immunodeficiency virus 1, MOLT-4, Table 20, positive control at 10 nM, MOI 0.08, read-out: % inhibition (anti-HIV effect)",57.8 ± 4.8%
same,inhibition at 0.1 µM,"HIV; Human immunodeficiency virus 1, MOLT-4, Table 20, positive control at 100 nM, MOI 0.02, read-out: % inhibition (anti-HIV effect)",89.1 ± 0.5%
same,inhibition at 0.1 µM,"HIV; Human immunodeficiency virus 1, MOLT-4, Table 20, positive control at 100 nM, MOI 0.04, read-out: % inhibition (anti-HIV effect)",86.1 ± 1.9%
same,inhibition at 0.1 µM,"HIV; Human immunodeficiency virus 1, MOLT-4, Table 20, positive control at 100 nM, MOI 0.08, read-out: % inhibition (anti-HIV effect)",82 ± 1.2%
same,inhibition at 0.01 µM,"HIV; Human immunodeficiency virus 1, MOLT-4, Table 22, 10 nM, MOI 0.02, read-out: % inhibition",74.8 ± 1.5%
same,inhibition at 0.01 µM,"HIV; Human immunodeficiency virus 1, MOLT-4, Table 22, 10 nM, MOI 0.04, read-out: % inhibition",73.9 ± 3.6%
same,inhibition at 0.01 µM,"HIV; Human immunodeficiency virus 1, MOLT-4, Table 22, 10 nM, MOI 0.08, read-out: % inhibition",68.8 ± 4.5%
same,inhibition at 0.1 µM,"HIV; Human immunodeficiency virus 1, MOLT-4, Table 22, 100 nM, MOI 0.02, read-out: % inhibition",98.5 ± 0.5%
same,inhibition at 0.1 µM,"HIV; Human immunodeficiency virus 1, MOLT-4, Table 22, 100 nM, MOI 0.04, read-out: % inhibition",95.5 ± 0.6%
same,inhibition at 0.1 µM,"HIV; Human immunodeficiency virus 1, MOLT-4, Table 22, 100 nM, MOI 0.08, read-out: % inhibition",93.3 ± 0.4%
COc1ccc(C[C@H](N)C(=O)N[C@H]2[C@@H](O)[C@H](n3cnc4c(N(C)C)ncnc43)O[C@@H]2CO)cc1 [puromycin],survival time in the presence of puromycin,A549 and HeLa cells,7 to 9 days
Alanine,% inhibition of HIV replication,HIV; MOI 0.02,75.7 ± 21%
same,% inhibition of HIV replication,HIV; MOI 0.04,71.0 ± 23%
same,% inhibition of HIV replication,HIV; MOI 0.08,8.7 ± 24%
Serine,% inhibition of HIV replication,HIV; MOI 0.02,96.6%
same,% inhibition of HIV replication,HIV; MOI 0.04,91.8%
same,% inhibition of HIV replication,HIV; MOI 0.08,82.0%
"TRAIL: Recombinant TRAIL (Alexis Biochemicals), death receptor ligand (protein, UniProt P50591 1-281, looked up) Tumor necrosis factor ligand …: MAMMEVQGGPSLGQTCVLIVIFTVLLQSLCVAVTYVYFTNELKQMQDKYSKSGIACFLKEDDSYWDPNDEESMNSPCWQVKWQLRQLVRKMILRTSEETISTVQEKQQNISPLVRERGPQRVAAHITGTRGRSNTLSSPNSKNEKALGRKINSWESSRSGHSFLSNLHLRNGELVIHEKGFYYIYSQTYFRFQEEIKENTKNDKQMVQYIYKYTSYPDPILLMKSARNSCWSKDAEYGLYSIYQGGIFELKENDRIFVSVTNEHLIDMDHEASFFGAFLVG",killing of G-361 cells,melanoma cell line G-361,< 100%
